Data published in article PMC8524670 (Pharmacology Research & Perspectives, 2021).
Structures can show the parent of a compound that is named as a salt.

How the values were obtained:
P-gp [1] = molecular target: T1, P-gp (Homo sapiens, UniProt P08183); assay: P-gp inhibition in Caco-2 cells; format: in vitro ADME; settings: human, Caco-2, probe digoxin
OATP1B1 = molecular target: T2, OATP1B1 (Homo sapiens, UniProt Q9Y6L6); assay: SLC transportation assay in HEK293 cells; format: in vitro ADME; settings: control substrate, 20 µM
T2 sequence (Q9Y6L6 1-691): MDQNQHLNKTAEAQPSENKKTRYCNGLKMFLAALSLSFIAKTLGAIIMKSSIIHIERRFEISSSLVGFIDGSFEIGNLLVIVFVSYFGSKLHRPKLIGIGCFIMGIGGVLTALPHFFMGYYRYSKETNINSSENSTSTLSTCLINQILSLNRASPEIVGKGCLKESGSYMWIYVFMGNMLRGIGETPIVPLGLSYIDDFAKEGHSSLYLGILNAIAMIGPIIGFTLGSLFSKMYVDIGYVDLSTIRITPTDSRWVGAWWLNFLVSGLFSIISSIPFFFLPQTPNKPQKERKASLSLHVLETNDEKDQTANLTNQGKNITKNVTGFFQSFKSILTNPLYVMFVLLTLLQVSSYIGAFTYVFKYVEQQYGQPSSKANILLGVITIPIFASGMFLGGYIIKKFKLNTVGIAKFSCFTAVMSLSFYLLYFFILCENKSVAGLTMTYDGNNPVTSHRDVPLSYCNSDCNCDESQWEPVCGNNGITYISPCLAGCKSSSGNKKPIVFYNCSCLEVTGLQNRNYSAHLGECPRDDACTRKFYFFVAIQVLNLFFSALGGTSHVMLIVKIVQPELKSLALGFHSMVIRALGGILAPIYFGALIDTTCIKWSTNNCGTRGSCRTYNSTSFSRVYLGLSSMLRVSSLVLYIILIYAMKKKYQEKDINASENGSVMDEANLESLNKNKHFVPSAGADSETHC

OATP1B3 = molecular target: T3, OATP1B3 (Homo sapiens, UniProt Q9NPD5); assay: SLC transportation assay in HEK293 cells; format: in vitro ADME; settings: control substrate, 20 µM
T3 sequence (Q9NPD5 1-702): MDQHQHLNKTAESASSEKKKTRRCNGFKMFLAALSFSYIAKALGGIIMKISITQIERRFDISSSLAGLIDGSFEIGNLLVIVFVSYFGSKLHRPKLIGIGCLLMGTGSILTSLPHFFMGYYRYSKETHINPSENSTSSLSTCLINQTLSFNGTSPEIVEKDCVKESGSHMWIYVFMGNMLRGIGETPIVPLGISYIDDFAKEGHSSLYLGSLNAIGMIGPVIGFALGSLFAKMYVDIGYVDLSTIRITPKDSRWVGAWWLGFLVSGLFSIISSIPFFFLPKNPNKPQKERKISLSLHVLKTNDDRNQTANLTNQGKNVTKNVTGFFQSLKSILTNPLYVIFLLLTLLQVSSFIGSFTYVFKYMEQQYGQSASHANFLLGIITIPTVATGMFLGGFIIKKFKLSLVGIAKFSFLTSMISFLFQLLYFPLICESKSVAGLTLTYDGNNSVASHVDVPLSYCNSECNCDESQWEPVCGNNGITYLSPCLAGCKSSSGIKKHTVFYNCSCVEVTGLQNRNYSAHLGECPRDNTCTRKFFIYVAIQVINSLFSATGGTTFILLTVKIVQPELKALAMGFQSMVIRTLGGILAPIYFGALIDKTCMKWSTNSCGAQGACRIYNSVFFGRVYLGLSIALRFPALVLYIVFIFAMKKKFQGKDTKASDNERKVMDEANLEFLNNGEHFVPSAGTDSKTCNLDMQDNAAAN

OAT3 [2] = molecular target: T4, OAT3 (Homo sapiens, UniProt Q8TCC7); assay: SLC transportation assay in HEK293 cells; format: in vitro ADME; settings: control substrate, 20 µM
T4 sequence (Q8TCC7 1-542): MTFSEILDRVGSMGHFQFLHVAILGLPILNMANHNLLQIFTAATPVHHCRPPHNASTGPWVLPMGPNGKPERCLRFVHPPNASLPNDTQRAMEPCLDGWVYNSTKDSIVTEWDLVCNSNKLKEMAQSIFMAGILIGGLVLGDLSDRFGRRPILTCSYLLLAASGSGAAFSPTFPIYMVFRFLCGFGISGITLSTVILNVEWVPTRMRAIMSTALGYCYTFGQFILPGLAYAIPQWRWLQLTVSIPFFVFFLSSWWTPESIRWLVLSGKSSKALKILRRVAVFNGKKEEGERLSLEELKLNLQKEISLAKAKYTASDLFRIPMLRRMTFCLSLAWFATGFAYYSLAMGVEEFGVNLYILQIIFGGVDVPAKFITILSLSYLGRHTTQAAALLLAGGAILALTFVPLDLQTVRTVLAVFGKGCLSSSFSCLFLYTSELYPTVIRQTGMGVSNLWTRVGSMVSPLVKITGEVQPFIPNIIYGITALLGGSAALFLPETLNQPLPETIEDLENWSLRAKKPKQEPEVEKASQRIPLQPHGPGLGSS

OCT2 [3] = molecular target: T5, OCT2 (Homo sapiens, UniProt O15244); assay: SLC transportation assay in HEK293 cells; format: in vitro ADME; settings: control substrate, 50 µM
T5 sequence (O15244 1-555): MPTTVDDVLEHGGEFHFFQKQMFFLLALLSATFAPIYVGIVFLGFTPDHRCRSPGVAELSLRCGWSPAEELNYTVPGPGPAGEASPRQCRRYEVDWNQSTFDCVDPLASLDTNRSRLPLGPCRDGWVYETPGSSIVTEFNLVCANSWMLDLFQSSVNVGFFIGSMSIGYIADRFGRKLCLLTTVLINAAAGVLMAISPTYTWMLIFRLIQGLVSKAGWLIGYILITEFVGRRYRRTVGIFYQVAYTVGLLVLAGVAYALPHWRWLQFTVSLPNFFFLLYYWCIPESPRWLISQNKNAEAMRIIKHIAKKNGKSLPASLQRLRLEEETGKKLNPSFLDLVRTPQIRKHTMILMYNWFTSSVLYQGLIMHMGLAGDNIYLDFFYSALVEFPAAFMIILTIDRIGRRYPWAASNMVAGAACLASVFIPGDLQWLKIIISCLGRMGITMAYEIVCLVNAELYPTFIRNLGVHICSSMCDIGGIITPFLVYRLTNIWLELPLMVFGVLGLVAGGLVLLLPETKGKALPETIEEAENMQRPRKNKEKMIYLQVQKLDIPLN

CYP1A2 = assay: in vitro; settings: human, positive control omeprazole 50 µM
OAT3 [4] = molecular target: T4, OAT3; assay: SLC inhibition assay in HEK293 cells; format: in vitro ADME; settings: human, HEK293 cells overexpressing OAT3 (and MOCK cells), probe estrone sulfate
OCT2 [5] = molecular target: T5, OCT2; assay: SLC inhibition assay in HEK293 cells; format: in vitro ADME; settings: human, HEK293 cells overexpressing OCT2 (and MOCK cells), probe metformin
CYP3A = settings: cited from earlier work
P-gp [6] = molecular target: T1, P-gp; settings: healthy subjects; cited from earlier work
CYP2B6 = assay: CYP induction in human hepatocytes; format: in vitro ADME; settings: human, cryopreserved human hepatocytes
human BCRP [7] = molecular target: T6, human BCRP (Homo sapiens, UniProt Q9UNQ0); assay: BCRP transportation in inside-out vesicles; format: in vitro ADME; settings: BCRP vesicles, LFY 10 μM probe substrate
T6 sequence (Q9UNQ0 1-655): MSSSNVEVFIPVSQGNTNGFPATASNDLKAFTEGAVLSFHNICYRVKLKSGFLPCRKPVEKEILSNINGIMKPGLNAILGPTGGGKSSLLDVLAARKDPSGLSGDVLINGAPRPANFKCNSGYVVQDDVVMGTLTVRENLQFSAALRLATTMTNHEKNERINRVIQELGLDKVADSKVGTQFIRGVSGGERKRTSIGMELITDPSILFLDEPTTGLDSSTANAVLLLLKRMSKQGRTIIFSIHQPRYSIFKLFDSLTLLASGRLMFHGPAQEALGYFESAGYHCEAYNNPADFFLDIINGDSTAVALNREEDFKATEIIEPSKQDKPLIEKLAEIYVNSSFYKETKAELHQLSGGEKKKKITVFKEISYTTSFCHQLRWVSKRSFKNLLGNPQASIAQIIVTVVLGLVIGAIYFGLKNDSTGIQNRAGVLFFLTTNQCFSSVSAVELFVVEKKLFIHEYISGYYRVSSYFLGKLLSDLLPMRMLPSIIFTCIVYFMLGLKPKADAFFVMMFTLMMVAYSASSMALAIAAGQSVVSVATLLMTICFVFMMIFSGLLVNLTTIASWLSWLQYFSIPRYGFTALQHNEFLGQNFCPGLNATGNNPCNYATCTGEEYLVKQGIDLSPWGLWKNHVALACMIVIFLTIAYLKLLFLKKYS

human BCRP [8] = molecular target: T6, human BCRP; assay: BCRP inhibition in vesicles; format: in vitro ADME; settings: BCRP inhibition assay, buffer vehicle

T1 sequence (P08183 whole entry): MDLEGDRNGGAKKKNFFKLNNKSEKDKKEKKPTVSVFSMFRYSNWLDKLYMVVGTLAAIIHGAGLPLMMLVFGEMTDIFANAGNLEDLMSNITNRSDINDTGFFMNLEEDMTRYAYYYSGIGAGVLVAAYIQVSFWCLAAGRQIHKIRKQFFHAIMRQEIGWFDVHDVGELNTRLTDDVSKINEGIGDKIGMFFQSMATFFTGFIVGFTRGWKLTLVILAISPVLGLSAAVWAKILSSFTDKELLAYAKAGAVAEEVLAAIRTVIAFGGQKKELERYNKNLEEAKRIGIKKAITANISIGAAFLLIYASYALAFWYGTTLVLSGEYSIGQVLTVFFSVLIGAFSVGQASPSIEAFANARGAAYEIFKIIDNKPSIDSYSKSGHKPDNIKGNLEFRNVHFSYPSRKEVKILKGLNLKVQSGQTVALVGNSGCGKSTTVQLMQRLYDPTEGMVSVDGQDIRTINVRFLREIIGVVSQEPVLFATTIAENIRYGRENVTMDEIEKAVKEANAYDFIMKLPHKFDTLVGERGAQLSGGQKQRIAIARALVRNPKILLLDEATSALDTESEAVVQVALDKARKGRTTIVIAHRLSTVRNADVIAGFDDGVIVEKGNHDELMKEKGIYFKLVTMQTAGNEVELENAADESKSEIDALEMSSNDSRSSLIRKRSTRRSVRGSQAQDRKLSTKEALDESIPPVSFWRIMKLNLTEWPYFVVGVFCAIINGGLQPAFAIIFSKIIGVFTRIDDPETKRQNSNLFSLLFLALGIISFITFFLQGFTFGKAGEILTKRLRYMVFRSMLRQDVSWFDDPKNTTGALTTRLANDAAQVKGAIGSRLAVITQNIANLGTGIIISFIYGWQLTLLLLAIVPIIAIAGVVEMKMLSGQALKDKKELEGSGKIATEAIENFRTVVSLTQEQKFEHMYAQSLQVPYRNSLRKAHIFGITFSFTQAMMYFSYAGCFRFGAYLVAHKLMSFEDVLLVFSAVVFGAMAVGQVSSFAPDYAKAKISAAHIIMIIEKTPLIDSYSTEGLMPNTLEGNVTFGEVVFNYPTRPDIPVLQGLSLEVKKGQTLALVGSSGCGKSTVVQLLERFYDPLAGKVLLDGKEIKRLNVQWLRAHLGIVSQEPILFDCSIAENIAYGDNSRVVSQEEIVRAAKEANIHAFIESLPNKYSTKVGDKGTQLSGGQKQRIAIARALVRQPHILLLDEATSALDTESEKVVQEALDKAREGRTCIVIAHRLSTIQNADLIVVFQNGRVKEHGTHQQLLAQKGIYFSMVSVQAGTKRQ

Molecule: C[C@H]1O[C@@H](O[C@H]2[C@@H](O)C[C@H](O[C@H]3[C@@H](O)C[C@H](O[C@H]4CC[C@@]5(C)[C@H](CC[C@@H]6[C@@H]5C[C@@H](O)[C@]5(C)[C@@H](C7=CC(=O)OC7)CC[C@]65O)C4)O[C@@H]3C)O[C@@H]2C)C[C@H](O)[C@@H]1O [Digoxin, reference compound]
- Papp B→A at 120 min, 10 µM (P-gp [1]): 15.4 ± 0.4 ×10⁻⁶ cm/s

Molecule: C[C@]12CC[C@@H]3c4ccc(O)cc4CC[C@H]3[C@@H]1CC[C@@H]2O[C@@H]1O[C@H](C(=O)O)[C@@H](O)[C@H](O)[C@H]1O [Estradiol‐17β‐glucuronide, reference compound]
- Uptake ratio (OATP1B1): 38.5 ± 5.5
- Uptake ratio (OATP1B3): 5.82 ± 0.62

Molecule: C[C@]12CC[C@@H]3c4ccc(OS(=O)(=O)O)cc4CC[C@H]3[C@@H]1CCC2=O [Estrone sulfate, reference compound]
- Uptake ratio (OAT3 [2]): 16.1 ± 0.45

Molecule: CN(C)C(=N)N=C(N)N [Metformin, reference compound]
- Uptake ratio (OCT2 [3]): 3.49 ± 0.26

Molecule: COc1ccc2[nH]c([S+]([O-])Cc3ncc(C)c(OC)c3C)nc2c1 (stereo not shown) [Omeprazole]
- fold induction at 2 days, 50 µM (CYP1A2; Fold induction of activity): 42 ± 6.4
- fold induction at 2 days, 50 µM (CYP1A2; Fold induction of mRNA level): 82 ± 94

Molecule: CCCN(CCC)S(=O)(=O)c1ccc(C(=O)O)cc1 [Probenecid, reference compound]
- activity at 50 µM (OAT3 [4]): 12.5 ± 8%

Molecule: C=C[C@H]1C[N@@]2CC[C@H]1C[C@@H]2[C@@H](O)c1ccnc2ccc(OC)cc12 [Quinidine, reference compound]
- activity at 500 µM (OCT2 [5]): 31.5 ± 8%

Molecule: CC[C@H](Nc1ncnc2[nH]cnc12)c1nc2cccc(F)c2c(=O)n1-c1ccccc1 [idelalisib]
- Increase of exposure of midazolam (CYP3A): 5.15 fold

Molecule: CCOc1cc2ncc(C#N)c(Nc3ccc(OCc4ccccn4)c(Cl)c3)c2cc1NC(=O)/C=C/CN(C)C [neratinib]
- Increase of AUC of digoxin (P-gp [6]): 32%
- Increase of mean digoxin C max (P-gp [6]): 54%

Molecule: CCC1(c2ccccc2)C(=O)NC(=O)NC1=O [phenobarbital, reference compound]
- fold induction at 2 days, 1000 µM (CYP2B6): 6.4 ± 3
- fold induction at 2 days, 1000 µM (CYP2B6; probe bupropion): 9.6 ± 5.4

Molecule: Lucifer Yellow [LFY, reference compound]
- Uptake ratio (ATP versus AMP) (human BCRP [7]): 17.4 ± 0.31 fold
- Uptake ratio of LFY (human BCRP [8]): 14.9 fold
